Here are results for six compounds from patent US20140005160A1, “Method for Treating Refractory Cancer” (priority 2010, published 2014).

Where two headings read alike, the source gives them in different places.

For series [1], the system named is breast cancer cell line MCF-7. In words: ATCC MTT Cell Proliferation Assay, MCF-7. Format: cell-based. Particulars: MCF-7, same manner as Example 2.
For series [2], the system named is human lung carcinoma cell line NCI-H322M. The experiment in a line: ATCC MTT Cell Proliferation Assay, NCI-H322M. Format: cell-based. Particulars: for IC50: NCI-H322M (KRAS wild type), same manner as Example 2. The text has this: (§1) Table 2 summarizes the results.
Series [3] has as its system human lung carcinoma cell line H1975. The experiment in a line: ATCC MTT Cell Proliferation Assay, H1975. Format: cell-based. The note with it: H1975 (KRAS wild type), same manner as Example 2.
From the text: as §1

Series [4] has as its system breast cancer cell line MDA-MB-231. In words: ATCC MTT Cell Proliferation Assay, MDA-MB-231. In kind it is cell-based. Particulars: for IC50: MDA-MB-231, same manner as Example 2 (Table 3); for IC50 Ratio (MDA-MB-231/MCF-7): ratio of IC50 in MDA-MB-231 to MCF-7.
For series [5], the system named is human prostate cancer cell line LNCaP (prostate carcinoma). Particulars: same manner as Example 2. The source says:
(§2) In addition, the IC50 values of docetaxel in the LNCaP and PC-3 cell lines were obtained from published literature. […] See Domingo-Domenech et al., Clin. Cancer Res., 12(18):5578-5586 (2006); Blagosklonny et al., J. Urol., 163(3):1022-6 (2000).

In series [6] the test system is human prostate cancer cell line PC-3 (prostate carcinoma).
From the text: as §2

Series [7] has as its system MVP- and MRP1-overexpressing subline SW-1573/2R120. The note with it: PGP/MRP-1-overexpressing cell line (SW-1573/2R120), 72 hours, EZ4U MTT. The method, then:
(§3) The alveolar epithelial cell carcinoma cell line SW-1573 and its MVP- and MRP1-overexpressing subline SW-1573/2R120 were grown in DMEM medium supplemented with 10% fetal calf serum. See Elbling et al., Cytometry, 31:187-198 (1998). Cells were plated (2×10^3 cells in 100 μl/well) in 96-well plates and allowed to recover for 24 hours. […] The proportion of viable cells was determined by MTT assay following the manufacturer's recommendations (EZ4U, Biomedica, Vienna, Austria). […] PGP/MRP-1-overexpression confers resistance to drugs such as vincristine, vinblastine, vinorelbine, taxol, docetaxel, etoposide, mitoxantrone, doxorubincin, epirubicin, topotecan, irinotecan, methotrexate, and imatinib etc. See Fojo & Menefee, Ann. Oncol., 18 (Supplement 5):v3-v8 (2007).

Series [8] deals with alveolar epithelial cell carcinoma cell line SW-1573. Particulars: SW1573 cell line, 72 hours, EZ4U MTT. The method, then:
as §3

Series [9] has as its system human lung carcinoma cell line A549. The experiment in a line: ATCC MTT Cell Proliferation Assay, A549. In kind it is cell-based. The note with it: for IC50 Ratio (A549/H1975): Table 5, ratio of IC50 in A549 to H1975.
The test system of series [10] is human melanoma cell line A375. The experiment in a line: ATCC MTT Cell Proliferation Assay, A375.
Protocol: (§6) Stock cultures were allowed to grow to 70-80% confluence for this study. […] ZR-75-1 plates were seeded with 3,000 cells/well, and the cells were grown in RPMI1640 medium containing 1% (1M HEPES), 1% sodium pyruvate, 1% (45% Glucose), 10% FBS and 1% penicillin/strep/glutamine. Cultures were maintained in a 37° C. humidified 5% CO2/95% air atmosphere. […] 100 μl of medium was removed from each well at 72 hours post-treatment and 10 μl MTT reagent was added to each well. The plates were incubated at 37° C. for 4 hours and then 100 μl of detergent was added. The plates were left overnight at room temperature in the dark and was read on a plate reader using SoftMax® Pro (version 5.2, Molecular Devices).
(§7) The absorbance data was analyzed as follows: Absorbance values were converted to Percent of Control and plotted against test agent concentrations for IC50 calculations using SoftMax® Pro (version 5.2, Molecular Devices). […] Percent of Control values were calculated by dividing the absorbance values for each test well by the No Drug Control average (column 11 values; cells+vehicle control) and multiplying by 100. Plots of Compound Concentration versus Percent of Control were analyzed using the 4-parameter equation to obtain IC50 values and other parameters that describe the sigmoidal dose response curve. […]
Series [11] has as its system human renal cell line A498. The note with it: A498, same manner as Example 2. The source says:
See e.g., Mahalingam et al., Clin. Cancer Res., 16(1):141-153 (2010).

In series [12] the test system is human breast cancer cell line MX-1. In words: ATCC MTT Cell Proliferation Assay, MX-1. Format: cell-based. The note with it: MX-1, 72 hours.
Protocol: as §6, §7
Series [13] has as its system human breast carcinoma cell line ZR-75-1. The experiment in a line: ATCC MTT Cell Proliferation Assay, ZR-75-1. In kind it is cell-based. The note with it: for IC50: ZR-75-1, 72 hours, MTT; for IC50 Ratio (ZR-75-1/MX-1): ratio of IC50 in ZR-75-1 to MX-1.
Protocol: as §6
The absorbance data was analyzed as follows: Absorbance values were converted to Percent of Control and plotted against test agent concentrations for IC50 calculations using SoftMax® Pro (version 5.2, Molecular Devices). The plate blank signal average was subtracted from all wells prior to calculating the Percent of Control. Percent of Control values were calculated by dividing the absorbance values for each test well by the No Drug Control average (column 11 values; cells+vehicle control) and multiplying by 100. Plots of Compound Concentration versus Percent of Control were analyzed using the 4-parameter equation to obtain IC50 values and other parameters that describe the sigmoidal dose response curve.
The IC50 value for the test agent was estimated by curve-fitting the data using the following four parameter-logistic equation:
wherein “Top” is the maximal % of control absorbance (100%), “Bottom” is the minimal % of control absorbance at the highest agent concentration (down to zero), Y is the Percent of Control absorbance, X is the test agent Concentration, IC50 is the concentration of agent that inhibits cell growth by 50% compared to the control cells, n is the slope of the curve.
A further series deals with HCT-116 p53 (−/−). Particulars: Colon HCT-116 p53 (−/−), 72 hours exposure, MTT. The method, then:
(§4) The colon carcinoma cell line HCT116 (HCT-116 p53 (+/+)) and the corresponding subline with deleted p53 genes (HCT-116 p53 (−/−)) were grown in McCoy's culture medium with 10% FCS. […] For cytotoxicity assays, cells were plated (2×10^3 cells in 100 μl/well) in 96-well plates and allowed to recover for 24 hours. […] The proportion of viable cells was determined by MTT assay following the manufacturer's recommendations (EZ4U, Biomedica, Vienna, Austria).

The test system of the next series is HCT-116 p53 (+/+). The note with it: Colon HCT-116 p53 (+/+), 72 hours exposure, MTT. The method, then:
as §4

The subject of series [14] is bcrp-overexpressing line MDA-MB-231/bcrp. The note with it: 72 hours, EZ4U MTT. The method, then:
(§5) Breast cancer cell line MDA-MB-231 and its corresponding bcrp-overexpressing line MDA-MB-231/bcrp were plated (2×10^3 cells in 100 μl/well) in 96-well plates and allowed to recover for 24 hours. […] The proportion of viable cells was determined by MTT assay following the manufacturer's recommendations (EZ4U, Biomedica, Vienna, Austria), and IC50 values were calculated. […] BCRP-overexpression confers resistance to drugs such as irinotecan, topotecan, mitoxantrone, methotrexate, camptothecins, gefitinib and imatinib etc. See Fojo & Menefee, Ann. Oncol., 18 (Supplement 5):v3-v8 (2007).

The subject of series [15] is breast cancer cell line MDA-MB-231. The note with it: MDA-MB-231, 72 hours, EZ4U MTT (Table 4). The method, then:
as §5

The next series has as its system LNCaP cell line. The note with it: from Domingo-Domenech et al. 2006; cited from earlier work.
Series [16] relates to PC-3 cell line. The note with it: PC-3, from Domingo-Domenech et al. 2006; cited from earlier work.
For series [17], the system named is PC-3 cell line. In words: Published literature IC50 of docetaxel, PC-3. Format: cell-based, human. The note with it: ratio from published literature IC50 values.

A word on the IC50: it is the concentration that gives 50% inhibition. As for `N.N.[Cl][Pt][Cl]` [Cisplatin, cisplatin, reference compound], the 50% inhibitory concentration (IC50) in [1] stood at 8010 nM; in series [2] it was 52300 nM; in [3] it was 11400 nM; in series [4], 47100 nM. Also, the “IC50 Ratio (NCI-H322M/H1975)” value in series [2] (Table 6, cisplatin column) is on record as 4.59. Also, the “IC50 Ratio (MDA-MB-231/MCF-7)” value in series [4] is 5.88.

Consider `[Ga+3].[O-]c1cccc2cccnc12.[O-]c1cccc2cccnc12.[O-]c1cccc2cccnc12`, for which the IC50 in [5] was 2190 nM; in [6] (PC-3, same manner as Example 2), 1790 nM; in [7], 2100 nM; in series [8], 1700 nM; in series [1], 1230 nM; in series [9] (A549 (KRAS G12S), same manner as Example 2) it was 1110 nM. Besides, the IC50 amounted to 4950 nM in series [2]; 1950 nM in [10] (A375, same manner as Example 2); 32900 nM in series [11]; 2060 nM in series [12]; 1590 nM in [13]; 1700 nM with HCT-116 p53 (−/−). For the same compound, the IC50 with HCT-116 p53 (+/+) came out at 1800 nM; in series [3], 3550 nM; in [4], 838 nM; in [14], 1800 nM; in series [15], 1600 nM. The “IC50 Ratio (PC-3/LNCaP)” value in series [6] (ratio of IC50 in PC-3 to LNCaP) was found to be 0.82. Moreover, the “IC50 Ratio (A549/H1975)” value in [9] is 0.31; in series [2] (Table 6, Test Drug column, row NCI-H322M), 1.39. Further, the “IC50 Ratio (ZR-75-1/MX-1)” value in series [13] is recorded as 0.77. Also, in [4], the “IC50 Ratio (MDA-MB-231/MCF-7)” value was determined as 0.681.

As for `O=c1[nH]cc(F)c(=O)[nH]1` [5-FU, 5-fluorouracil, reference compound], the IC50 was 1470 nM in series [12] (Homo sapiens) and 31100 nM in series [13] (Homo sapiens). The “IC50 Ratio (ZR-75-1/MX-1)” value in [13] is 21.2.

With `CC(=O)O[C@@]12CO[C@@H]1C[C@H](O)[C@@]1(C)C(=O)[C@H](O)C3=C(C)[C@@H](OC(=O)[C@H](O)[C@@H](NC(=O)OC(C)(C)C)c4ccccc4)C[C@@](O)([C@@H](OC(=O)c4ccccc4)[C@H]21)C3(C)C` [Docetaxel, docetaxel], the IC50 in the series on LNCaP cell line was 2.5 to 5 nM; with PC-3 cell line [16], 50 to 60 nM. The “IC50 Ratio (PC-3/LNCaP/)” value in the series on PC-3 cell line [17] is 12-20.

In series [10] (Homo sapiens, A-375), `Cn1nnc2c(C(N)=O)ncn2c1=O` [temozolomide, reference compound] had an IC50 of 369000 nM.

Turning to `CC(=O)O[C@H]1C(=O)[C@@]2(C)[C@H]([C@H](OC(=O)c3ccccc3)[C@]3(O)C[C@H](OC(=O)[C@H](O)[C@@H](NC(=O)c4ccccc4)c4ccccc4)C(C)=C1C3(C)C)[C@]1(OC(C)=O)CO[C@@H]1C[C@@H]2O` [Paclitaxel, paclitaxel, reference compound], the “IC50 Ratio (A549/H1975)” value in [9] was found to be 1984. In addition, the concentration for half-maximal inhibition (IC50) in series [3] (Homo sapiens, NCI-H1975) stood at 5 nM.
